Starred links: 1 amine or outer side, 2 acyl side, 3 side chain; linkers in the order of their positions; H or OH if unused. Positions of bridges follow the written chain, without caps; N, C: chain ends. Non-standard residues stand in square brackets, D forms with d. Residues, ends and D or L forms follow the SMILES beside them. Chains are numbered I, II in the order given. Actinocin(1to9) = Cc1c2oc3c(C)ccc(C(=O)[*:2])c3nc-2c(C(=O)[*:1])c(N)c1=O; NMeV = CN[C@H](C(=O)O)C(C)C; Sar = CNCC(=O)O
Biological target: recombinant CpLDH protein (Cryptosporidium parvum, UniProt Q9GT92, F198L/K295E/R251K)

| Compound | MEAN CpLDH INHIBITION (%) |
| --- | --- |
| CC1=C2C(=CO[C@H](C)[C@H]2C)C(=O)C(C(=O)O)=C1O [NSC186] | -47.49% |
| O=C1C(=O)c2ccccc2C(O)=C1CCCc1ccc(Oc2ccccc2)cc1 [NSC377] | -0.53% |
| CC(=O)[O][Hg].c1ccc2c(c1)ccc1ccccc12 [NSC534] | -63.87% |
| Nc1nc2n[nH]nc2c(=O)[nH]1 [NSC749] | -18.77% |
| O=C(O)c1ccc(NC(c2ccccc2)c2ccc3cccnc3c2O)cc1 (stereo not shown) [NSC1011] | -0.99% |
| NC1(C(=O)O)CCCC1 [NSC1026] | -29.26% |
| CC(C)(Br)C(=O)C(Br)Br [NSC1027] | -2.97% |
| c1coc(CNc2ncnc3[nH]ncc23)c1 [NSC1620] | -4.87% |
| C1CCNCC1.S=C(S)N1CCCCC1 [NSC1906] | -58.60% |
| Cc1cc(O)c(C(C)C)cc1C1(c2cc(C(C)C)c(O)cc2C)OC(=O)c2ccccc21 [NSC2186] | -64.59% |
| CC(C)C1(Cl)CCC2C3(C)CCCC(C)(C(=O)O)C3CC(Cl)C2(Cl)C1Cl (stereo not shown) [NSC2979] | -29.91% |
| O=Nc1ccc(O)c2ncccc12 [NSC3852] | -37.64% |
| c1ccc(-c2cccc(-c3ccccn3)n2)nc1 [NSC3905] | -48.97% |
| C1COCCN1.S=C(S)N1CCOCC1 [NSC4114] | -42.22% |
| Cc1ccc2ccc3ccc(C)nc3c2n1 [NSC4280] | -27.03% |
| C=C(C)[C@@H]1CC[C@]2(CO)CC[C@]3(C)[C@H](CC[C@@H]4[C@@]5(C)CC[C@H](O)C(C)(C)[C@@H]5CC[C@]43C)[C@@H]12 [NSC4644] | -25.29% |
| Nc1nncs1 [NSC4728] | -23.83% |
| O=[N+]([O-])c1ccc(N=Nc2c(O)[nH]c3ccccc23)c([N+](=O)[O-])c1 [NSC4810] | -33.40% |
| CCN(CC)C(=S)[S-].[Na+] [NSC4857] | -37.64% |
| CO[C@H]1[C@@H](O)[C@@H](C)O[C@H](O[C@H]2[C@H](Oc3cccc4c(O)c5c(=O)oc6ccc(C)c7c(=O)oc(c34)c5c67)O[C@H](C)[C@H](O)[C@@H]2O)[C@@H]1O [NSC5159] | -38.07% |
| Nc1nc(N)c(N=Nc2ccccc2)c(=O)[nH]1 [NSC5200] | -51.63% |
| Nc1ccccc1N [NSC5354] | 0% |
| CC(=O)c1c(O)c(C)c(O)c2c1OC1=CC(=O)C(C(C)=O)C(=O)C12C (stereo not shown) [NSC5890] | -32.64% |
| O=C1c2cccc(O)c2C(=O)c2c(O)cccc21 [NSC7210] | -48.97% |

| Compound | MEAN CpLDH INHIBITION (%) |
| --- | --- |
| C[C@@H]1O[C@@H](O[C@@H]2C=C3CC[C@@H]4[C@H](CC[C@]5(C)[C@@H](c6ccc(=O)oc6)CC[C@]45O)[C@@]3(C)CC2)[C@H](O)[C@H](O)[C@H]1O[C@@H]1O[C@H](CO)[C@@H](O)[C@H](O)[C@H]1O [NSC7525] | -34.67% |
| CO[C@H]1C[C@H](O[C@H]2CC[C@]3(C=O)[C@H]4CC[C@]5(C)[C@@H](C6=CC(=O)OC6)CC[C@]5(O)[C@@H]4CC[C@]3(O)C2)O[C@H](C)[C@H]1O[C@@H]1O[C@H](CO[C@@H]2O[C@H](CO)[C@@H](O)[C@H](O)[C@H]2O)[C@@H](O)[C@H](O)[C@H]1O [NSC7530] | -3.24% |
| CC(=O)O[C@H]1C[C@H](O[C@H]2[C@@H](O)C[C@H](O[C@H]3[C@@H](O)C[C@H](O[C@H]4CC[C@@]5(C)[C@H](CC[C@@H]6[C@@H]5CC[C@]5(C)[C@@H](C7=CC(=O)OC7)CC[C@]65O)C4)O[C@@H]3C)O[C@@H]2C)O[C@H](C)[C@H]1O[C@@H]1O[C@H](CO)[C@@H](O)[C@H](O)[C@H]1O [NSC7532] | -151.91% |
| Nc1ccc(N)c2c1C(=O)c1ccccc1C2=O [NSC7833] | -11.00% |
| COc1ccc2nc(C)cc(NCCCCCCCCCNc3cc(C)nc4ccc(OC)cc34)c2c1 [NSC10010] | -19.54% |
| CC(C)=CC1C(C(=O)O)C1(C)C (stereo not shown) [NSC11779] | -22.15% |
| CC1=C(O)c2ccccc2C(=O)C1=O [NSC11897] | -2.25% |
| CC(C)=CCC1=C(O)c2ccccc2C(=O)C1=O [NSC11905] | -39.26% |
| COc1cccc2c1cc([N+](=O)[O-])c1c(C(=O)O)cc3c(c12)OCO3 [NSC11926] | -19.30% |
| CN(C)CCOc1ccc(I)cc1Cc1ccccc1.Cl [NSC11930] | -34.92% |
| O=c1c(Br)c(-c2ccccc2)[nH]c2ccccc12 [NSC12825] | -13.98% |
| Nc1ccc2c(c1)S(=O)(=O)c1cc(N)ccc1-2 [NSC13966] | -21.73% |
| Cc1cc2cc3cc(C)c(N)cc3nc2cc1N.Cl [NSC13973] | -3.43% |
| CC1=CC(O)C(O)C2(C)C1CC1OC(=O)C(O)C3C(C)C(O)C4(O)OCC13C42 (stereo not shown) [NSC14974] | 0.167% |
| O=[N+]([O-])[O-].O=[N+]([O-])[O-].O=[N+]([O-])[O-].[Ga+3] [NSC15200] | -34.76% |
| CC[C@H](C)[C@@H]1NC(=O)[C@@H](NC(=O)c2c3nc4c(C(=O)N[C@@H]5C(=O)N[C@@H](C(C)C)C(=O)N6CCC[C@H]6C(=O)N(C)CC(=O)N(C)[C@@H](C(C)C)C(=O)O[C@@H]5C)ccc(C)c4oc-3c(C)c(=O)c2N)[C@@H](C)OC(=O)[C@H](C(C)C)N(C)C(=O)CN(C)C(=O)[C@@H]2CCCN2C1=O [NSC18268] (I: TIP[Sar][NMeV] / II: TVP[Sar][NMeV]; ester I:1-I:C, II:1-II:C; linker I:N-II:N via Actinocin(1to9)) | -2.01% |
| CC(C)c1cccc(O)c(=O)c1 [NSC18804] | -36.91% |
| CC(C)c1ccc(O)c(=O)cc1 [NSC18805] | -40.28% |
| CN(C)CCCN1c2ccccc2Sc2ccc3ccccc3c21 [NSC18891] | -7.99% |
| CCCCCCCCCCCCC(O)C(=O)O (stereo not shown) [NSC18938] | -83.85% |
| CCN(CC)CCOc1ccc(C(O)(Cc2ccc(OC)cc2)c2ccccc2)cc1 (stereo not shown) [NSC19857] | -57.96% |
| COC(=O)[C@@H]1[C@H](O)[C@H](C)[C@H](O)[C@H](C)/C=C\C=C(/C)C(=O)Nc2c(C)c(OC(C)=O)c3c(c2O)C(=O)C(C)=C2OCOC(=C23)/C(C)=C/[C@@](C)(O)[C@H](O)[C@@H](C)[C@H]1O [NSC19990] | -27.23% |
| Nc1nc2c(ncn2[C@@H]2O[C@H](CO)[C@@H](O)[C@H]2O)c(=O)[nH]1 [NSC19994] | -14.24% |
| CCCCOCc1cc(CN2CCN(C)CC2)c(O)c2ncccc12 [NSC20514] | -30.20% |

| Compound | MEAN CpLDH INHIBITION (%) |
| --- | --- |
| C[C@]12CC[C@@H]3c4ccccc4CC[C@H]3[C@@H]1CC[C@@H]2O [NSC22194] | -50.61% |
| C[C@H](CN(C)C)C(=O)c1ccccc1C(=O)O [NSC22992] | -3.61% |
| CN(CCc1ccccn1)c1ccc2c(c1)C(=O)c1ccccc1-2 [NSC24048] | -65.48% |
| CN(C)CCCN1c2ccc3ccccc3c2Sc2cccc(Cl)c21 [NSC24113] | -11.52% |
| COc1cc([C@@H]2c3cc4c(c(O)c3C[C@H]3COC(=O)[C@@H]32)OCO4)cc(OC)c1O [NSC24817] | -20.22% |
| COc1cc([C@@H]2c3cc4c(c(O)c3C[C@H]3COC(=O)[C@@H]32)OCO4)cc(OC)c1OC [NSC24819] | -66.99% |
| CC(C)C1=CC2=CC[C@@H]3[C@](C)(CCC[C@@]3(C)C(=O)O)[C@H]2CC1 [NSC25149] | -16.60% |
| OC(CN1CCCCC1)c1ccc(/C=C/c2ccc(Cl)cc2)cc1 (stereo not shown) [NSC26040] | -70.84% |
| O=C1Nc2c(Cl)cc(Cl)cc2C1=O [NSC26045] | -41.99% |
| OCC1OC(n2cnc3c(SCc4ccccc4)ncnc32)C(O)C1O (stereo not shown) [NSC26273] | -4.046% |
| Cc1c2ccc3ccccc3c2c[n+]2ccccc12.[Cl-] [NSC28002] | -26.04% |
| Cl.Nc1nc(N)c2ncn(-c3ccccc3)c2n1 [NSC29603] | -54.90% |
| O=C([O][Hg][CH2]C1COC([CH2][Hg][O]C(=O)c2ccccc2)CO1)c1ccccc1 (stereo not shown) [NSC30916] | -5.35% |
| Nc1ccc2nc3ccc(=O)cc-3n(-c3ccccc3)c2c1 [NSC31702] | -41.86% |
| NC(=O)NO [NSC32065] | -2.35% |
| CC(/C=N/N=C(N)N)=N\N=C(N)N [NSC32946] | -50.60% |
| COc1c(O[C@@H]2O[C@H](CO)[C@@H](O)[C@H](O)[C@H]2O)cc2c(c1OC)-c1ccc(OC)c(=O)cc1[C@@H](NC(C)=O)CC2 [NSC32992] | -5.35% |
| Oc1ccc(-c2nc3ccccc3s2)cc1 [NSC33004] | -8.80% |
| COc1cc2c(c(OC)c1OC)-c1ccc(OC)c(=O)cc1[C@@H](NC(=O)c1ccccc1)CC2 [NSC33410] | -43.24% |
| CCN1C=C/C(=C\C=C\c2cc[n+](CC)c3ccccc23)c2ccccc21.[I-] [NSC34391] | -25.08% |
| COc1c2c(c(OC)c3c1c(=O)c1ccccc1n3C)OCO2 [NSC34757] | -24.18% |
| O=C(C[n+]1ccc2ccccc2c1)c1ccc2ccc3ccccc3c2c1 [NSC35489] | -39.94% |
